Reference: paper PMC10882696, “Novel 5-Substituted Oxindole Derivatives as Bruton’s Tyrosine Kinase Inhibitors: Design, Synthesis, Docking, Molecular Dynamics Simulation, and Biological Evaluation” (ACS Omega, 2024)
“Also recorded” adds a separate entry of the source. Counter-ions that a name gives are not always drawn.

Key:
RAMOS = assay: 3 day MTS cytotoxicity assay, RAMOS; type: cell-based, human; conditions: for activity in RAMOS cells: BTK-high; for IC50: Homo sapiens, Ramos, BTK-positive, mean ± SD, n ≥ 6
Protocol: (§1) The cytotoxic activity of all the 10 compounds was tested under in vitro conditions using a 3 day standard 3-(4,5-dimethylthiazol-2yl)-5-(3-carboxymethoxyphenyl)-2-(4-sulfophenyl)-2H-tetrazolium reduction assay in 384-well plates on a robotic high-throughput screening platform (HighResBio, Boston, MA) as described elsewhere.[38] The IC50 values were calculated from the respective dose–response curves of compounds with Dotmatics (San Diego, CA, USA).

HCT116 = assay: 3 day MTS cytotoxicity assay, HCT116; type: cell-based; conditions: Homo sapiens, HCT-116; HCT116, ITK/BTK-negative; mean ± SD, n ≥ 6
Protocol: as §1

JURKAT = assay: 3 day MTS cytotoxicity assay, JURKAT; type: cell-based; conditions: Homo sapiens, ITK-positive, mean ± SD, n ≥ 6
Protocol: as §1

K562 = assay: 3 day MTS cytotoxicity assay, K562; type: cell-based; conditions: Homo sapiens; K562, BTK-positive; mean ± SD, n ≥ 6
Protocol: as §1

U2OS = assay: 3 day MTS cytotoxicity assay, U2OS; type: cell-based; conditions: Homo sapiens, ITK/BTK-negative, mean ± SD, n ≥ 6
Protocol: as §1

HCT116p53^–/– = assay: 3 day MTS cytotoxicity assay, HCT116p53-/-; type: cell-based; conditions: ITK/BTK-negative, mean ± SD, n ≥ 6
Protocol: as §1

A549 = assay: 3 day MTS cytotoxicity assay, A549; type: cell-based; conditions: Homo sapiens; A549, ITK/BTK-negative; mean ± SD, n ≥ 6
Protocol: as §1

BJ = assay: 3 day MTS cytotoxicity assay, BJ; type: cell-based; conditions: Homo sapiens, non-cancer fibroblasts, mean ± SD, n ≥ 6
Protocol: as §1

MRC-5 = assay: 3 day MTS cytotoxicity assay, MRC-5; type: cell-based; conditions: Homo sapiens, MRC5; MRC-5, non-cancer fibroblasts; mean ± SD, n ≥ 6
Protocol: as §1

CCRF-CEM = assay: 3 day MTS cytotoxicity assay, CCRF-CEM; type: cell-based; conditions: Homo sapiens, ITK-positive, mean ± SD, n ≥ 6
Protocol: as §1

Structure (SMILES)	melting point	activity in RAMOS cells (RAMOS)	IC50 (RAMOS)	IC50 (HCT116)	IC50 (JURKAT)	IC50 (K562)	IC50 (U2OS)	IC50 (HCT116p53^–/–)	IC50 (A549)	IC50 (BJ)	IC50 (MRC-5)	IC50 (CCRF-CEM)
O=C1Nc2ccc(S(=O)(=O)N3CCN(C(=O)C4CCCCC4)CC3)cc2C1=C1CCCC1 (as salt: hydrochloride) [9b, 5-((4-(Cyclohexanecarbonyl)piperazin-1-yl)sulfonyl)-3-cyclopentylideneindolin-2-one]	140 to 145 °C											
O=C1Nc2ccc(S(=O)(=O)N3CCN(C(=O)C4CC4)CC3)cc2C1=C1CCCC1 (as salt: hydrochloride) [9c, 3-Cyclopentylidene-5-((4-(cyclopropanecarbonyl)piperazin-1-yl)sulfonyl)indolin-2-one]	136 to 142 °C											
O=C1Nc2ccc(S(=O)(=O)N3CCN(C(=O)c4ccccc4)CC3)cc2C1=C1CCCC1 (as salt: hydrochloride) [9d, 5-((4-Benzoylpiperazin-1-yl)sulfonyl)-3-cyclopentylideneindolin-2-one]	135 to 140 °C											
O=C1Nc2ccc(S(=O)(=O)N3CCN(C(=O)c4cccc(Cl)c4)CC3)cc2C1=C1CCCC1 (as salt: hydrochloride) [9e, 5-((4-(3-Chlorobenzoyl)piperazin-1-yl)sulfonyl)-3-cyclopentylideneindolin-2-one]	133 to 138 °C											
O=C1Nc2ccc(S(=O)(=O)N3CCN(C(=O)c4cccc(Br)c4)CC3)cc2C1=C1CCCC1 (as salt: hydrochloride) [9f, 5-((4-(3-Bromobenzoyl)piperazin-1-yl)sulfonyl)-3-cyclopentylideneindolin-2-one]	130 to 135 °C											
O=C1Nc2ccc(S(=O)(=O)N3CCN(C(=O)c4cccc(F)c4)CC3)cc2C1=C1CCCC1 (as salt: hydrochloride) [9g, 3-Cyclopentylidene-5-((4-(3-fluorobenzoyl)piperazin-1-yl)sulfonyl)indolin-2-one]	132 to 135 °C											
CCCCC(=O)N1CCN(S(=O)(=O)c2ccc3c(c2)C(=C2CCCC2)C(=O)N3)CC1 (as salt: hydrochloride) [9h, 3-Cyclopentylidene-5-((4-pentanoylpiperazin-1-yl)sulfonyl)indolin-2-one]	130 to 135 °C											
O=C1Nc2ccc(S(=O)(=O)N3CCN(C(=O)c4cccnc4)CC3)cc2C1=C1CCCC1 (as salt: hydrochloride) [9i, 3-Cyclopentylidene-5-((4-nicotinoylpiperazin-1-yl)sulfonyl)indolin-2-one]	195 to 200 °C											
O=C1Nc2ccc(S(=O)(=O)N3CCN(C(=O)c4cccc(C(F)(F)F)c4)CC3)cc2C1=C1CCCC1 (as salt: hydrochloride) [9j, 3-Cyclopentylidene-5-((4-(3-(trifluoromethyl)benzoyl)piperazin-1-yl)sulfonyl)indolin-2-one]	139 to 143 °C											
CC(C)C(=O)N1CCN(S(=O)(=O)c2ccc3c(c2)C(=C2CCCC2)C(=O)N3)CC1 [9a, 3-Cyclopentylidene-5-((4-isobutyrylpiperazin-1-yl)sulfonyl)indolin-2-one]	165 to 171 °C	no activity	> 50 µM	> 50 µM	> 50 µM	> 50 µM	> 50 µM	> 50 µM	> 50 µM	> 50 µM	> 50 µM	> 50 µM
O=C1Nc2ccc(S(=O)(=O)N3CCN(C(=O)C4CC4)CC3)cc2C1=C1CCCC1 [9c, 3-Cyclopentylidene-5-((4-(cyclopropanecarbonyl)piperazin-1-yl)sulfonyl)indolin-2-one]		did not show any activity	> 50 µM	> 50 µM	50 µM	> 50 µM	> 50 µM	> 50 µM	> 50 µM	> 50 µM	> 50 µM	> 50 µM
O=C1Nc2ccc(S(=O)(=O)N3CCN(C(=O)c4ccccc4)CC3)cc2C1=C1CCCC1 [9d, 5-((4-Benzoylpiperazin-1-yl)sulfonyl)-3-cyclopentylideneindolin-2-one]		did not show any activity	> 50 µM	> 50 µM	> 50 µM	> 50 µM	> 50 µM	> 50 µM	> 50 µM	> 50 µM	> 50 µM	> 50 µM
O=C1Nc2ccc(S(=O)(=O)N3CCN(C(=O)c4cccc(Cl)c4)CC3)cc2C1=C1CCCC1 [9e, 5-((4-(3-Chlorobenzoyl)piperazin-1-yl)sulfonyl)-3-cyclopentylideneindolin-2-one]		did not show any activity	> 50 µM	> 50 µM	> 50 µM	> 50 µM	> 50 µM	> 50 µM	> 50 µM	> 50 µM	> 50 µM	> 50 µM
O=C1Nc2ccc(S(=O)(=O)N3CCN(C(=O)c4cccc(F)c4)CC3)cc2C1=C1CCCC1 [9g, 3-Cyclopentylidene-5-((4-(3-fluorobenzoyl)piperazin-1-yl)sulfonyl)indolin-2-one]		selective cytotoxicity; also recorded: showed activity; also recorded: good anticancer activity in the micromole range	2.09 ± 0.47 µM	> 50 µM	> 50 µM	> 50 µM	> 50 µM	> 50 µM	> 50 µM	> 50 µM	> 50 µM	46.5 ± 5.81 µM
O=C1Nc2ccc(S(=O)(=O)N3CCN(C(=O)c4cccnc4)CC3)cc2C1=C1CCCC1 [9i, 3-Cyclopentylidene-5-((4-nicotinoylpiperazin-1-yl)sulfonyl)indolin-2-one]		no activity	> 50 µM	> 50 µM	> 50 µM	> 50 µM	> 50 µM	> 50 µM	> 50 µM	> 50 µM	> 50 µM	> 50 µM
O=C1Nc2ccc(S(=O)(=O)N3CCN(C(=O)c4cccc(C(F)(F)F)c4)CC3)cc2C1=C1CCCC1 [9j, 3-Cyclopentylidene-5-((4-(3-(trifluoromethyl)benzoyl)piperazin-1-yl)sulfonyl)indolin-2-one]		no activity	> 50 µM	> 50 µM	> 50 µM	> 50 µM	23.6 ± 6.44 µM	> 50 µM	> 50 µM	> 50 µM	27.4 ± 6.8 µM	> 50 µM
C=CC(=O)N1CCC[C@@H](n2nc(-c3ccc(Oc4ccccc4)cc3)c3c(N)ncnc32)C1 [ibrutinib, Ibrutinib, reference compound]			0.3 µM	30 ± 1 µM	5 ± 1 µM	27 ± 3 µM	23 ± 3 µM	30 ± 1 µM		29 ± 1 µM	28 µM	4 ± 1 µM
